Consider one substance from patent US20160368992A1, “A METHOD OF INCREASING GIPCR SIGNALIZATION IN THE CELLS OF A SCOLIOTIC SUBJECT” (CHU SAINTE-JUSTINE, priority 2013, published 2016).

One assay deals with GsPCR signaling. Kind of assay: CDS response to GsPCR stimulation (isoproterenol, desmopressin) in MC3T3-E1 cells. Format: cell-based. The source says:
(§1) Taken into account these considerations and having observed that genetic deletion of OPN inversely influenced response to Gi and Gs stimulation (FIG. 1), it was of interest to examine the effect of OPN on the functional and phosphorylation status of Gs protein and on its interaction with receptors. For this purpose, cells were subjected to isoproterenol and desmopressin in the presence of rOPN or PBS. As expected, response to isoproterenol was higher in rOPN than in PBS-treated cells.
Assuming that inhibition of Gi protein and phosphorylation of Gs protein are responsible for the increased GsPCR signaling associated with rOPN, the next experiments aimed to determine the contribution of each parameter. For this purpose, cells were treated with PTX to mimic disruption action of rOPN and compared to cells treated with rOPN alone or in combination with Src inhibitor (PP2) to prevent tyrosine phosphorylation. […] This modest difference was abolished by Src inhibitor (PP2). Similar observations were noted when cells were stimulated with desmopressin.

For the next assay, the system named is Gs protein. Kind of assay: Immunoprecipitation/Western blot: Gs protein tyrosine phosphorylation and association with receptors in MC3T3-E1 cells. Type of assay: cell-based.
Description: as §1
For orientation: In western blotting, separated proteins are transferred to a membrane and probed.

In another assay the test system is GiPCR signaling. The assay is described as follows: CDS (CellKey) functional evaluation of Gi protein-mediated receptor signaling in primary mouse osteoblasts. Format: cell-based, mice. The conditions noted are these: osteoblasts from bipedal CD44 knockout (CD44-/-) mice.
Assay [1] deals with Gi proteins with MO, MT2 or β1 integrin receptors. Kind of assay: Immunoprecipitation/Western blot: interaction of Gi proteins with GPCR and β1 integrin in MC3T3-E1 cells. Format: cell-based. On the procedure: MC3T3-E1 cells were treated with PBS or rOPN (0.5 μg/ml) then the whole cell proteins (1 mg) were incubated with anti-MOR (Abcam Toronto, ON, Canada), anti-MT2 or anti-[…] (Santa Cruz Biotechnology), plus protein G beads for immunoprecipitation (IP) at 4° C. overnight. Purified proteins were loaded on 10% gel after IP, then, processed for gel transferring to PVDF membrane and 5% BSA blocking. Membranes were exposed to antibodies specific for Gi1, Gi2, Gi3, MOR, MT2 and β1 integrin at 4° C. overnight and, subsequently, treated with secondary antibody at room temperature for 1 h. Bands were visualized using SuperSignal™ chemiluminescent (Pierce, Rockford, Ill.) and quantified by densitometric scanning.
It is notable that when different receptors signal through the same subfamily of G proteins, they share the same limited pool of G proteins. Therefore, if OPN enhances the recruitment of Gi proteins in the β1 integrin complex, reduction in the amount of Gi proteins in GiPCR complex would be expected. To evaluate this possibility, cells lysates were immunoprecipitated with antibodies against MO, MT2 or β1 integrin receptors, and the presence of Gi proteins in each precipitate was examined by Western blot using antibodies specific for Gi1, Gi2 or Gi3 isoform. […]

Where [2] appears, read: rOPN-treated vs PBS-treated cells.

“rOPN: exogenous recombinant osteopontin (R&D systems)”: in the assay on GsPCR signaling (rOPN vs PBS-treated cells), the “response to isoproterenol (similar with desmopressin)” value is on record as “higher”. Moreover, the “greater responsiveness to isoproterenol stimulation than PTX-treated cells” value in the assay with GsPCR signaling (rOPN-treated vs PTX-treated cells) was 30%. Further, the “presence of Gs proteins in the immunoprecipitates of MT2 and MO receptors” value in the assay with Gs protein (rOPN treatment) was “enhances”. For the same substance, the “Gs protein immunoprecipitates probed with anti-tyrosine antibody” value with Gs protein (setting [2]) was “higher intensity”. For the same substance, in the assay on GiPCR signaling, the “response to DAMGO and oxymethazolin after rOPN treatment” value was “concentration-dependent decrease in response”. Besides, the “amount of Gi protein isoforms in the β1 integrin precipitates” value in assay [1] (following rOPN treatment) is reported as “elevated”. The “relative amount of Gi isoforms immunoprecipitated with MO or MT2 receptor” value in assay [1] (setting [2]) is “reduced”.
